# Data: patent US6906205B2, “Spiro and dispiro 1,2,4-trioxolane antimalarials” (Medicines for Malaria Venture MMV, priority 2002, dated 2005)
# What was measured:
# [1] = tested on: P. falciparum NF54 strain (sensitive to standard antimalarials); assay: semiautomated microdilution assay, [3H]-hypoxanthine incorporation, NF54 strain; type: cell-based, Plasmodium falciparum; details: NF54 strain, 72 h incubation
# Method in brief: (§1)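 IC50 values come from logit regression of semiautomated microdilution data obtained on intraerythrocytic parasites drawn from asynchronous cultures.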
# [2] = tested on: P. falciparum K1 strain (Thailand resistant to chloroquine); assay: semiautomated microdilution assay, [3H]-hypoxanthine incorporation, K1 strain; type: cell-based, Plasmodium falciparum; details: K1 strain, 72 h incubation
# Method in brief: as §1
# [3] = tested on: ANKA strain of P. berghei; assay: single dose STI in vivo screen in infected mice; set-up: species or system Plasmodium berghei; details: for Activity (%) po / Survival (days) po: single 10 mg/kg po in 3% ethanol and 7% Tween 80; for Activity (%) po / Activity (%) sc / Activity (%) SSVpo: mice; for Activity (%) sc / Survival (days) sc: single 10 mg/kg sc in 3% ethanol and 7% Tween 80; for Activity (%) SSVpo: single po dose in standard suspending vehicle (SSV); for Survival (days) po / Survival (days) sc / Survival (days) SSVpo: untreated control 5.6 ± 0.3; for Survival (days) SSVpo: single po dose in SSV
# Method in brief: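 Groups of 3-5 Moro SPF or NMRI mice infected with the ANKA strain of P. berghei received a single dose of trioxolane on day one post-infection. The compound was given in 3% ethanol and 7% Tween 80 or in SSV (0.5% w/v CMC, 0.5% v/v benzyl alcohol, 0.4% v/v Tween 80, 0.9% w/v sodium chloride in water). Antimalarial activity was scored as percent reduction in parasitemia on day three and as survival time versus untreated controls. Survival to day 30 counted as cure.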
# [4] = percent reduction in parasitemia day 3 post-infection
SMILES,IC50 (ng/ml) NF54 [1] [ng/mL],IC50 (ng/ml) K1 [2] [ng/mL],"Activity (%) po [3, 4]","Activity (%) sc [3, 4]","Activity (%) SSVpo [3, 4]",Survival (days) po [3],Survival (days) sc [3],Survival (days) SSVpo [3],"Activity (%) 3 mg/kg SSV po ([3]; percent reduction in parasitemia day 3 post-infection, single 3 mg/kg po in SSV) [%]","Activity (%) 10 mg/kg SSV po ([3]; percent reduction in parasitemia day 3 post-infection, single 10 mg/kg po in SSV) [%]",Survival (days) 10 mg/kg SSV po ([3]; single 10 mg/kg po in SSV) [days]
C=C1COC2(CCC3(CC2)OOC2(O3)C3CC4CC(C3)CC2C4)OC1 (centres unmarked) [OZ128],1.1,0.59,99.93%,99.98%,99.95%,8.3 days,11.7 days,8.7 days,–,–,–
c1cc(CN2CCC3(CC2)OOC2(O3)C3CC4CC(C3)CC2C4)ccn1 (centres unmarked) [OZ216],0.67,0.40,62%,99.02%,69%,6.3 days,11.0 days,7.7 days,–,–,–
O=C(OCCC1CCC2(CC1)OOC1(O2)C2CC3CC(C2)CC1C3)c1ccc([N+](=O)[O-])cc1 (centres unmarked) [OZ88],4.2,5.7,62%,99.1%,–,6.0 days,11.7 days,–,–,–,–
CONC(=O)C[C@H]1CC[C@]2(CC1)OOC1(O2)C2CC3CC(C2)CC1C3 (some centres unmarked) [OZ213],2.8,2.3,83%,85%,74%,8.0/8.0/8.0 days,8.0/8.0/8.0 days,8.0/8.0/8.0 days,–,–,–
c1cnn(C[C@H]2CC[C@]3(CC2)OOC2(O3)C3CC4CC(C3)CC2C4)c1 (some centres unmarked) [OZ211],1.2,1.0,82%,99.90%,78%,8.0 days,8.7 days,7.3 days,–,–,–
CCN(CC)C(=O)C1CCC2(CC1)OOC1(O2)C2CC3CC(C2)CC1C3 (centres unmarked) [OZ73],8.2,6.5,27%,36%,–,6.0 days,6.7 days,–,–,–,–
O=C(O)c1ccc(OC[C@H]2CC[C@]3(CC2)OOC2(O3)C3CC4CC(C3)CC2C4)cc1 (some centres unmarked) [OZ176],35,25,11%,24%,18%,7.0 days,7.0 days,7.7 days,–,–,–
NC(=O)CNC(=O)C[C@H]1CC[C@]2(CC1)OO[C@]1(O2)C2CC3CC(C2)CC1C3 [OZ306],3.6,3.9,–,–,–,–,–,–,87,99.58,9.2
Fc1ccc(NC2CCC3(CC2)OOC2(O3)C3CC4CC(C3)CC2C4)cc1 (centres unmarked) [OZ201],3.1,2.0,100/100/100%,100/100/100%,100/100/100%,13 days,25 days,10.3 days,–,–,–
O=C(NO)[C@H]1CC[C@]2(CC1)OOC1(O2)C2CC3CC(C2)CC1C3 (some centres unmarked) [OZ116],3.3,4.2,97%,96%,96%,7.7 days,8.0 days,8.3 days,–,–,–
c1ccc2c(c1)CCCC21OOC2(O1)C1CC3CC(C1)CC2C3 (centres unmarked) [OZ84],2.1,1.4,92%,99.99%,–,7.7 days,14.7 days,–,–,–,–
S=C(Nc1ccccc1)N1CCC2(CC1)OOC1(O2)C2CC3CC(C2)CC1C3 (centres unmarked) [OZ144],2.1,1.4,99.45%,99.94%,92%,7.3 days,16.7 days,7.3 days,–,–,–
OC1(c2nccs2)CCC2(CC1)OOC1(O2)C2CC3CC(C2)CC1C3 (centres unmarked) [OZ247],2.3,1.8,57%,99.85%,27%,6.3 days,9.0 days,6.0 days,–,–,–
